# How the values were obtained:
# Assay type in all cases: biochemical
# [1] = target: T1, KLK3 (Homo sapiens, UniProt P07288); test: Probe labeling of KLK3 in LNCaP conditioned media (in-gel fluorescence / streptavidin blot); details: LNCaP CM, 1 h treatment
# T1 construct: endogenous in cells; host or cells: LNCaP cells treated with 10 nM DHT; conditioned medium
# Excerpt: An optimized tetrapeptide designed to occupy the KLK S1–S4 subsites was envisaged for the ABP specificity element, grafted onto a peptidyl-diphenyl phosphonate (DPP) warhead which reacts specifically and exclusively with the Ser195 residue in the KLK3 active site.[21] […] We therefore replaced the boronic acid in 2 with the DPP moiety in 1 and capped the N-terminus with a tetramethyl rhodamine (TAMRA) fluorophore to afford 3, which served as a prototype ABP for KLK3. A mixed solid-phase and solution-phase approach was used for the synthesis of peptidyl-DPP compounds, as described previously (Figures S1 and S2).[24] […]
# Despite exquisite selectivity, maximal KLK3 labeling was achieved only after treatment with 20 μM 3 for 1 h. We therefore optimized probe potency by systematically modifying each amino acid side chain in the P1–P4 positions of a morpholine-capped peptidyl-DPP inhibitor scaffold and determined the potency of each analogue using competitive-ABPP against 3.[25],[26] […] Second generation biotinylated 20 and fluorescent 21 ABPs (Figures 2G and S7) based on this scaffold retained exquisite selectivity for KLK3 in LNCaP CM, but in contrast to first-generation ABP 3 achieved maximum labeling at only 1 μM and readily detectable labeling down to 130 nM (Figures 2H and S7). […]
# [2] = target: T2, KLK2 (Homo sapiens, UniProt P20151); test: Inhibition of KLK2 after incubation with 50 µM probe (Figure S8); details: 30 minutes
# T2 construct: purchased R&D Systems
# T2 sequence (P20151 25-261): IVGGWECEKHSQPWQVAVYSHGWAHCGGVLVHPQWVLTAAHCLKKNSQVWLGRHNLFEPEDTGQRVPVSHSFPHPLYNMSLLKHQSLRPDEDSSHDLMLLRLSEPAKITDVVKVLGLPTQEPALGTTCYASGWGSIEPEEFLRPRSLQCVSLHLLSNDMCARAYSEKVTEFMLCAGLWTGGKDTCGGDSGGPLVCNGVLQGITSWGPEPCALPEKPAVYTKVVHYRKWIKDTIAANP
# Protocol: Table S1: Antibodies used throughout this project
# Protein Supplier Cat. No. Host /clonal Immunogen
# KLK2 Abcam Ab124899 Rabbit Mono Synthetic peptide within amino […]
# KLK3 SCBT sc-7316 Mouse Mono Full length KLK3 of human origin
# KLK14 Abcam Ab128957 Rabbit Mono Synthetic peptide within the C- […]
# Transferrin Abcam Ab66952 Rabbit Poly Full length Transferrin of human […]
# HSP90 SCBT sc-69703 Mouse Mono Full length HSP90 of human
# In gel-fluorescence: LNCaP conditioned media (50 µg) was treated with a fluorescent activity-based probe for 1 h. After 1 h, proteins were precipitated using the aforementioned procedure and resuspended in a 3:1 ratio of PBS and sample loading buffer to a concentration of 1 mg/mL. After boiling for 5 min, 10 µL of sample was loaded on to a hand cast 12 % Bis-Tris gel and proteins were separated by SDS-PAGE as described above. Gels were then scanned for fluorescence at the appropriate wavelength.
# Immunoprecipitation: LNCaP conditioned media (100 µg) was treated with the appropriate ABP for 1h. Proteins were precipitated using the CHCl3/MeOH procedure outlined above and resuspended in RIPA buffer (20 mM Tris, 150 mM NaCl, 1 mM EDTA, 1mM EGTA, 1 % NP-40, 1 % sodium deoxycholate, 2.5 mM sodium pyrophosphate, 1 mM glycerophosphate, 1 mM Na3VO4 pH 7.5) to a concentration of 1 mg/mL. […]
# [3] = target: T3, KLK14 (Homo sapiens, UniProt Q9P0G3); test: Inhibition of KLK14 after incubation with 50 µM probe (Figure S8); details: 30 minutes
# T3 construct: purchased R&D Systems
# T3 sequence (Q9P0G3 25-251): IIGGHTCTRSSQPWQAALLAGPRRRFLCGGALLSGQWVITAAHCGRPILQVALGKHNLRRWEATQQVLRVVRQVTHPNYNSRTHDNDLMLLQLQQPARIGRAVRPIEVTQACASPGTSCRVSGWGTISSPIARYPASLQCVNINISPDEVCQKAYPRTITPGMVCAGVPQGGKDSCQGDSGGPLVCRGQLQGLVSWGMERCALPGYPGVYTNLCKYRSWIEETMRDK
# T1 sequence (P07288 25-261): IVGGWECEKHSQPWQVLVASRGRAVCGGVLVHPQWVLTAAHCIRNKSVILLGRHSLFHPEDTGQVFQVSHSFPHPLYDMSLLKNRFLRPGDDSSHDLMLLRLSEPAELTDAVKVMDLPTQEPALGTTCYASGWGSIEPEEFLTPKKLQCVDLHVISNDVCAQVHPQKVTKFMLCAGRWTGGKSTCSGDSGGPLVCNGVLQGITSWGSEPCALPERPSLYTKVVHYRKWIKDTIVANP
smiles,measurement,setting,value
CCC[C@H](NC(=O)[C@H](CCC(N)=O)NC(=O)[C@H](CC(N)=O)NC(=O)CCCCCNC(=O)CCCC[C@@H]1SC[C@@H]2NC(=O)N[C@@H]21)C(=O)NC(c1ccc(C(N)=O)cc1)P(=O)(Oc1ccccc1)Oc1ccccc1 (stereo partly shown) [compound 20],concentration at which maximal KLK3 labeling was achieved,[1],1 µM
same,lowest concentration with readily detectable KLK3 labeling,[1],130 nM
same,inhibition of KLK2,[2],no inhibition
same,inhibition of KLK14,[3],no inhibition
